# Columns and labels:
# [1] = Steady-state volume of distribution of compound when administered intravenously as an individual dose to a single dog.; assay type: ADME, organism-based, Canis lupus familiaris; conditions: in vivo, iv, read-out: Vss
# [2] = Steady-state volume of distribution of compound when administered intravenously as a mixture (five-in-one dose) to a single dog.; assay type: ADME, organism-based, Canis lupus familiaris; conditions: in vivo, iv, read-out: Vss
# [3] = Clearance of compound when administered intravenously as an individual dose to a single dog.; assay type: ADME, organism-based, Canis lupus familiaris; conditions: in vivo, iv
# [4] = Elimination half-life of compound when administered intravenously as a mixture (five-in-one dose) to a single dog.; assay type: ADME, organism-based; conditions: in vivo, iv
# [5] = Elimination half-life of compound when administered intravenously as an individual dose to a single dog.; assay type: ADME, organism-based; conditions: in vivo, iv
# [6] = Clearance of compound when administered intravenously as a mixture (five-in-one dose) to a single dog.; assay type: ADME, organism-based, Canis lupus familiaris; conditions: in vivo, iv
Vd [1] [L/kg],Vd [2] [L/kg],clearance [3] [mL/min/kg],half-life [4] [h],half-life [5] [h],clearance [6] [mL/min/kg],SMILES
2.91,2.86,11.6,3,3.4,11.2,CNC(=O)CN(C)S(=O)(=O)c1cc(CCN2CCC(c3nc(COCC(F)(F)F)c(-c4ccc(F)cc4)o3)CC2)ccc1OC
3.46,2.76,28.9,2.4,2.1,17.3,CNC(=O)CN(C)S(=O)(=O)c1cc(CCN2CCC(c3nc(COCC(F)(F)F)c(-c4ccccc4)o3)CC2)ccc1OC

# Continued, molecule first:
SMILES,Vd [1] [L/kg],Vd [2] [L/kg],clearance [3] [mL/min/kg],half-life [4] [h],half-life [5] [h],clearance [6] [mL/min/kg]
COc1ccc(CCN2CCC(c3nc(COCC(F)(F)F)c(-c4ccc(F)cc4)o3)CC2)cc1S(N)(=O)=O,0.243,0.33,0.9,4.9,4.2,0.86
COc1ccc(CCN2CCC(c3nc(COCC(F)(F)F)c(-c4ccccc4)o3)CC2)cc1S(N)(=O)=O,0.382,0.473,5,1.5,1.4,5.9
COc1ccc(CCN2CCC(c3nc(COCC(F)(F)F)c(-c4ccccc4)o3)CC2)cc1S(=O)(=O)NCCNC(C)=O,0.6,2.83,10.3,2.9,2.6,18.7

# — ChEMBL document CHEMBL1130434, “Simultaneous pharmacokinetic screening of a mixture of compounds in the dog using API LC/MS/MS analysis for increased throughput” (J Med Chem, 1997)
